According to patent US20120020989A1, “METHODS OF TREATING COLORECTAL CANCER” (KYOWA HAKKO KIRIN CO., LTD., priority 2010, published 2012):

Legend:
LS174T [1] = assay: SCID mouse LS174T intraperitoneal xenograft model, surviving period; assay type: in vivo; settings: LS174T i.p., CPT-11 10 mg/kg; for surviving period median (median survival time: MST): N26 antibody 5 mg/kg, 5-FU 50 mg/kg, caudal vein once a week x4, adjuvant group 24 days; for prolongation of surviving period in comparison with the adjuvant alone group: log-rank test, N26 5 mg/kg, 5-FU 50 mg/kg once a week x4
Protocol: (1) SCID mouse and colorectal cancer cell line
SCID mice (C.B-17/Icr-scid, female, 6-weeks old) were purchased from CLEA Japan Inc. and reared in an SPF (specific pathogen free) equipment.
A colorectal cancer-derived cell line LS174T (purchased from ATCC) was used as the tumor cell and cultured using RPMI 1640 medium (manufactured by GIBCO, Invitrogen) containing 10% FBS (manufactured by HyClone) and 1% penicillin-streptomycin (manufactured by GIBCO, Invitrogen).
A xenograft model was prepared by intraperitoneally transplanting the cultured LS174T cell into the SCID mouse at a dose of 1×10^7 cells/200 μl/head.
An anti-A33 human antibody (KRN330) (hereinafter referred to as N26 antibody) comprising the heavy chain variable region represented by SEQ ID NO:23 and the light chain variable region represented by SEQ ID NO:25 was used as an anti-A33 human antibody.
5-FU (5FU Injection 250 Kyowa) was obtained from Kyowa Hakko Kirin Co., Ltd. and CPT-11 (Campto (registered trademark) Injection or Irinotecan Hydrochloride Injection) was obtained from YAKULT HONSHA CO., LTD. In the control group, a dilution medium of the anti-A33 human antibody (10 mM of sodium L-glutamate, 262 mM of D-sorbitol and 0.05 mg/ml of polysorbate 80, pH 5.5) was used.
Administration schedules of agents are shown in FIG. (A)(a) and FIG. 1(B)(a), respectively. After transplanting the cultured LS174 cell into the abdominal cavity of SCID mice on day 0, their body weights were measured on the next day of the transplantation (on day 1) to divide them into six groups in such a manner that the average body weight of each group became equal (A, B, E and F groups=seven animals per group, C and D groups=six animals per group).
The grouping day was regarded as the initial administration day, and thereafter, 5 mg/kg of an anti-A33 human antibody, 10 mg/kg of CPT-11 (irinotecan) or 50 mg/kg of 5-FU was administered into the mouse caudal vein at a dose of 10 ml/kg, four times (on day 1, day 8, day 15 and day 22) at a frequency of once a week, and the surviving period was monitored. On the same day of the drug administration, an adjuvant was intravenously administered to the control group.
Survival curve of each administration group was plotted by the Kaplan-Meier method and the survival curves of each group were compared using log-rank test, with the results shown in FIG. 1(A)(b) and FIG. 1(A)(c) and FIG. 1(B)(b) and FIG. 1(B)(c). In this connection, though the results of FIG. 1(A)(b) and FIG. 1(A)(c) and FIG. 1(B)(b), and FIG. 1(B)(c) are separately shown, these were carried out in the same test, and results of the control group and the N26 antibody (5 mg/kg) group in FIG. 1(A)(b) and FIG. 1(A)(c) are identical to those in FIG. 1(B)(b) and FIG. 1(B)(c).

LS174T [2] = assay: Nude rat LS174T subcutaneous xenograft model, tumor volume
Protocol: Nude rat (F344/NJcl-rnu/rnu, female, 8 weeks old) was purchased from CLEA Japan Inc. and reared in an SPF equipment.
Oxaliplatin (ELPLAT (registered trademark) For Injection or Oxaliplatin For Injection) was obtained from YAKULT HONSHA CO., LTD., and Avastin (registered trademark) (bevacizumab) was obtained from Genentech Inc.
Administration schedule of each agent was carried out in the following manner. When the size of tumor became from 30 m^3 to 50 m^3 after subcutaneously grafting with LS174T cell to the nude rat, grouping was carried out so as to be five animals per group in such a manner that the tumor volume of each group became uniform (on day 0).
The adjuvant was intravenously administered to the control group in the same manner. The tumor volume of each individual was measured at a frequency of once or twice a week.

For `O=c1[nH]cc(F)c(=O)[nH]1` [5-FU, 5-fluorouracil], the “surviving period median (median survival time: MST)” value (LS174T [1]) was 24 days, the “prolongation of surviving period in comparison with the adjuvant alone group” value (LS174T [1]) was “prolongation of surviving period was not found” and the “antitumor effect (tumor volume), FIG. 2(a)” value (LS174T [2]; nude rat LS174T s.c., N26 5 mg/kg, 5-FU 100 mg/kg, i.v. day 0, 7, 14, 21) was “significant antitumor effect”.

In the case of `O=C1[O][Pt]2([NH][C@@H]3CCCC[C@H]3[NH]2)[O]C1=O` [oxaliplatin], the “antitumor effect (tumor volume), FIG. 2(b)” value (LS174T [2]; nude rat LS174T s.c., N26 5 mg/kg, oxaliplatin 15 mg/kg, i.v. day 0, 7, 14, 21) is reported as “slight antitumor effect” and the body weight loss (LS174T [2]; nude rat, oxaliplatin 15 mg/kg administration group) is reported as “significant body weight loss”.

With `CCc1c2c(nc3ccc(OC(=O)N4CCC(N5CCCCC5)CC4)cc13)-c1cc3c(c(=O)n1C2)COC(=O)[C@]3(O)CC` [CPT-11, irinotecan] the “surviving period median (median survival time: MST)” value (LS174T [1]) was 41 days and the “prolongation of surviving period in comparison with the adjuvant alone group” value (LS174T [1]) was “significant prolongation of surviving period”.
